Like-named read-outs stand apart in the source and are kept apart here.
Key:
[1] = biological target: T1, glutathione-S-transferase (GST) tagged LXRbeta LBD (ligand binding domain) (Homo sapiens, UniProt P55055); assay: LanthaScreen TR-FRET Liver X Receptor Coactivator Assay, co-activator recruitment to LXRbeta LBD; assay type: biochemical
T1 construct: purchased Invitrogen pv4658.pps
T1 sequence (P55055 222-460 limits assumed): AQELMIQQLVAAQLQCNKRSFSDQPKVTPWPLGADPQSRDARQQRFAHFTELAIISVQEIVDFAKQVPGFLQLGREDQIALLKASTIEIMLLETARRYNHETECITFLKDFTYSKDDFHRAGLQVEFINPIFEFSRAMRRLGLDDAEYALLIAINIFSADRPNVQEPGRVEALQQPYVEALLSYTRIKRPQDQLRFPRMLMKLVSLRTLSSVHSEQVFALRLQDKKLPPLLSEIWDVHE
In short: (§1)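 Readout is time-resolved FRET between a terbium anti-GST antibody bound to the LBD and a fluorescein-tagged coactivator peptide recruited on ligand binding. Plates were incubated at room temperature before reading. Potency (IP) and efficacy (Emax) are referenced to T0901317.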

[2] = biological target: T2, glutathione-S-transferase (GST) tagged LXRalpha LBD (ligand binding domain) (Homo sapiens, UniProt Q13133); assay: LanthaScreen TR-FRET Liver X Receptor Coactivator Assay, co-activator recruitment to LXRalpha LBD; assay type: biochemical
T2 construct: purchased Invitrogen pv4655
T2 sequence (Q13133 209-447 limits assumed): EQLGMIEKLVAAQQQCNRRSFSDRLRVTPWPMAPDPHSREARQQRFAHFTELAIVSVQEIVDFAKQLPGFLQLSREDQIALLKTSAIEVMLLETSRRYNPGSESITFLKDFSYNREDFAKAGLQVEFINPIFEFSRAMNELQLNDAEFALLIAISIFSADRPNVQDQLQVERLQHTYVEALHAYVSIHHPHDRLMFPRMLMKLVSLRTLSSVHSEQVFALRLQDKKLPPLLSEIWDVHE
In short: as §1

[3] = efficacy at max dose, in relation to reference dual agonist T0901317, read-out: LXR beta Activity @ max dose (%)
[4] = potency (Inflection Point, IP), co-activator recruitment to LXRbeta LBD, in relation to T0901317, read-out: LXR beta IP
[5] = efficacy at max dose, in relation to reference dual agonist T0901317, read-out: LXR alpha Activity @ max dose (%)
[6] = potency (Inflection Point, IP), co-activator recruitment to LXRalpha LBD, in relation to T0901317, read-out: LXR alpha IP
[7] = co-activator recruitment to GST-LXRbeta LBD, TR-FRET, read-out: LXR beta IP (Inflection Point, potency)
[8] = efficacy in relation to reference dual agonist T0901317, read-out: LXR beta Activity @ max dose
[9] = efficacy in relation to reference dual agonist T0901317, read-out: LXR alpha Activity @ max dose
[10] = efficacy at max dose, in relation to reference dual agonist T0901317
[11] = potency (Inflection Point, IP), co-activator recruitment to LXRalpha LBD, in relation to T0901317

| Compound | Emax [1, 3] [%] | EC50 [1, 4] [nM] | Emax [2, 5] [%] | EC50 [2, 6] [nM] | LXR alpha IP (nM) [2, 11] | further results |
| --- | --- | --- | --- | --- | --- | --- |
| CN(C)C(=O)c1ccc(N2CCC(CC3CCN(C(=O)[C@](O)(c4cccc(C5CC5)c4)C(F)(F)F)CC3)CC2)cc1Cl [Example 2-96, 2-chloro-4-[4-({1-[(2R)-2-(3-cyclopropyl-phenyl)-3,3,3-trifluoro-2-hydroxy-propanoyl]piperidin-4-yl}methyl)piperidin-1-yl]-N,N-dimethyl-benzamide] | 63 | 4 | 20 | 66 | – | – |
| CN(C)C(=O)c1ccc(N2CCC(CC3CCN(S(=O)(=O)c4cc(F)cc(F)c4)CC3)CC2)cc1Cl [Example 13-6, 2-chloro-4-[4-({1-[(3,5-difluorophenyl)-sulfonyl]piperidin-4-yl}methyl)piperidin-1-yl]-N,N-dimethylbenzamide] | – | – | – | – | – | EC50 [1, 7]: 75 nM; Emax [1, 8]: 41%; LXR alpha IP (Inflection Point, potency) ([2]; co-activator recruitment to GST-LXRalpha LBD, TR-FRET): NO IP; Emax [2, 9]: 12% |
| COCCN(C)C(=O)c1ccc(N2CCC(CC3CCN(C(=O)[C@](O)(c4ccccc4)C(F)(F)F)CC3)CC2)cc1Cl [Example 4-9] | 69 | 17 | 31 | 195 | – | – |
| COc1cccc([C@@](O)(C(=O)N2CCC(CC3CCN(c4ccc(C(=O)N(C)C)c(Cl)c4)CC3)CC2)C(F)(F)F)n1 (stereo in doubt) [Example 2-165, 2-chloro-N,N-dimethyl-4-[4-({1-[3,3,3-trifluoro-2-hydroxy-2-(6-methoxy-pyridin-2-yl)propanoyl]piperidin-4-yl}methyl)piperidin-1-yl]benzamide] | 108 | 2.5 | 18 | – | NO IP | – |
| COc1cccc(C(O)(C(=O)N2CCC(CC3CCN(c4ccc(C(=O)N(C)C)c(Cl)c4)CC3)CC2)C(F)(F)F)c1F (stereo not drawn) [Example 2-41, 2-chloro-N,N-dimethyl-4-[4-({1-[3,3,3-trifluoro-2-(2-fluoro-3-methoxyphenyl)-2-hydroxy-propanoyl]piperidin-4-yl}methyl)piperidin-1-yl]benzamide] | 63 | 14 | 10 | – | NO IP | – |
| COc1cccc(S(=O)(=O)N2CCC(CC3CCN(c4ccc(C(=O)N(C)C)c(Cl)c4)CC3)CC2)c1 [Example 13-11, 2-chloro-4-[4({1-[(3-methoxyphenyl)-sulfonyl]piperidin-4-yl}methyl)piperidin-1-yl]-N,N-dimethyl-benzamide] | – | – | – | – | – | EC50 [1, 7]: 98 nM; Emax [1, 8]: 64%; EC50 ([2]; co-activator recruitment to GST-LXRalpha LBD, TR-FRET, read-out: LXR alpha IP (Inflection Point, potency)): 733 nM; Emax [2, 9]: 23% |
| CN(C)C(=O)c1ccc(N2CCC(CC3CCN(C(=O)[C@](O)(c4cccc(F)c4)C(F)F)CC3)CC2)cc1Cl [Example 2-164, 2-chloro-4-[4-({1-[(2R)-3,3-difluoro-2-(3-fluorophenyl)-2-hydroxy-propanoyl]piperidin-4-yl}methyl)piperidin-1-yl]-N,N-dimethyl-benzamide] | 70 | 12 | 29 | 294 | – | – |
| O=C(c1ccc(N2CCC(CC3CCN(C(=O)[C@](O)(c4ccccc4)C(F)(F)F)CC3)CC2)cc1Cl)N1CCC(n2ccnc2)C1 (stereo partly drawn) [Example 4-19, (2R)-3-(4-{[1-(3-chloro-4-{[3-(1H-imidazol-1-yl)pyrrolidin-1-yl]carbonyl}phenyl)piperidin-4-yl]methyl}piperidin-1-yl)-1,1,1-trifluoro-3-oxo-2-phenylpropan-2-ol] | 43 | 141 | 25 | 765 | – | – |
| CN(C)C(=O)c1ccc(N2CCC(CC3CCN(C(=O)[C@](O)(c4cc(F)cc(Cl)c4)C(F)(F)F)CC3)CC2)cc1 [Example 2-139, 4-[4-({1-[(2R)-2-(3-chloro-5-fluorophenyl)-3,3,3-trifluoro-2-hydroxy-propanoyl]piperidin-4-yl}methyl)piperidin-1-yl]-N,N-dimethyl-benzamide] | 95 | 14 | 36 | 266 | – | – |
| Cc1nc(N2CCC(CC3CCN(C(=O)C(O)(c4cccc(Cl)c4)C(F)(F)F)CC3)CC2)ccc1C(=O)N(C)C (stereo not drawn) [Example 7-7, 6-[4-({1-[2-(3-chlorophenyl)-3,3,3-trifluoro-2-hydroxypropanoyl]piperidin-4-yl}methyl)piperidin-1-yl]-N,N,2-trimethylpyridine-3-carboxamide] | – | 36 | – | 508 | – | Emax ([1]; read-out: LXR beta Activity @ max dose (%)): 95%; Emax ([2]; read-out: LXR alpha Activity @ max dose (%)): 24% |

Continued, in another order:

| Emax [1, 3] [%] | EC50 [1, 4] [nM] | Emax [2, 5] [%] | EC50 [2, 6] [nM] | LXR alpha IP (nM) [2, 11] | Compound | further results |
| --- | --- | --- | --- | --- | --- | --- |
| 55 | 6 | – | – | NO IP | CN(C)C(=O)c1ccc(N2CCC(CC3CCN(C(=O)[C@](O)(c4cc(Cl)cc(Cl)c4)C(F)(F)F)CC3)CC2)nc1Cl [Example 7-93, 2-chloro-6-[4-({1-[(2R)-2-(3,5-dichlorophenyl)-3,3,3-trifluoro-2-hydroxypropanoyl]piperidin-4-yl}methyl)piperidin-1-yl]-N,N-dimethylpyridine-3-carboxamide] | LXR alpha Activity @ max dose (%) [2, 10]: 1% |
| – | 7 | – | – | NO IP | COc1cccc([C@@](O)(C(=O)N2CCC(CC3CCN(c4ccc(C(=O)N(C)C)c(Cl)n4)CC3)CC2)C(F)(F)F)c1 [Example 7-74, 2-chloro-N,N-dimethyl-6-[4-({1-[(2R)-3,3,3-trifluoro-2-hydroxy-2-(3-methoxyphenyl)propanoyl]piperidin-4-yl}methyl)piperidin-1-yl] pyridine-3-carboxamide] | LXR beta Activity @ max dose (%) [1, 10]: 61%; LXR alpha Activity @ max dose (%) [2, 10]: 9% |
| 123 | 16 | 39 | 438 | – | COc1ccccc1C1(C(=O)N2CCC(CC3CCN(c4ccc(C(=O)N(C)C)c(Cl)n4)CC3)CC2)CCC1 [Example 7-57, 2-chloro-6-{4-[(1-{[1-(2-methoxyphenyl)cyclobutyl]carbonyl}piperidin-4-yl)methyl]piperidin-1-yl}-N,N-dimethylpyridine-3-carboxamide] | – |
| 80 | 57 | 19 | 663 | – | CN(C)C(=O)c1ccc(N2CCC(CC3CCN(C(=O)C4(c5ccccc5)CCCC4)CC3)CC2)nc1Cl [Example 7-64, 2-chloro-N,N-dimethyl-6-[4-({1-[(1-phenylcyclopentyl)carbonyl]piperidin-4-yl}methyl)piperidin-1-yl]pyridine-3-carboxamide] | – |
| 70 | 46 | 11 | – | NO IP | Cc1cccc(C(O)(C(=O)N2CCC(CC3CCN(c4ccc(C(=O)N(C)C)c(C)n4)CC3)CC2)C(F)(F)F)c1 (stereo not drawn) [Example 7-6, N,N,2-trimethyl-6-[4-({1-[3,3,3-trifluoro-2-hydroxy-2-(3-methylphenyl)propanoyl]piperidin-4-yl}methyl)piperidin-1-yl]pyridine-3-carboxamide] | – |
| 114 | 78 | 16 | – | NO IP | COc1cc(F)cc([C@](O)(C(=O)N2CCC(CC3CCN(c4ccc(C(=O)N(C)C)c(Cl)n4)CC3)CC2)C(F)(F)F)c1 [Example 7-102, 2-chloro-N,N-dimethyl-6-[4-({1-[(2S)-3,3,3-trifluoro-2-(3-fluoro-5-methoxyphenyl)-2-hydroxypropanoyl]piperidin-4-yl}methyl)piperidin-1-yl]pyridine-3-carboxamide] | – |
| 82 | 12 | 32 | 182 | – | CNC(=O)c1ccc(N2CCC(CC3CCN(C(=O)[C@](O)(c4cccc(Br)c4)C(F)(F)F)CC3)CC2)cc1Cl [Example 7-119, 4-[4-({1-[(2R)-2-(3-bromophenyl)-3,3,3-trifluoro-2-hydroxypropanoyl]piperidin-4-yl}methyl)piperidin-1-yl]-2-chloro-N-methyl-benzamide] | – |
| 73 | 4 | 0 | 109 | – | CN(C)C(=O)c1ccc(N2CCC(CC3CCN(C(=O)[C@](O)(c4cccc(Br)c4)C(F)(F)F)CC3)CC2)nc1Cl [Example 7-67, 6-[4-({1-[(2R)-2-(3-bromophenyl)-3,3,3-trifluoro-2-hydroxypropanoyl]piperidin-4-yl}methyl)piperidin-1-yl]-2-chloro-N,N-dimethylpyridine-3-carboxamide] | – |

From patent US10752587B2, “Homobispiperidinyl derivatives as liver X receptor beta agonists, compositions and their use” (Merck Sharp & Dohme Corp., priority 2015, dated 2020)
